# Laboratory results published in article PMC6397271 (Scientific Reports, 2019).
# Read-outs that look alike come from different tables or passages of the source.
# What was measured:
# Assay in all cases: microbe, parasite or virus in culture
# S. aureus MRSA 12673 = type: cell-based, Staphylococcus aureus
# How it was run: (§1)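 MICs were measured by microbroth dilution against MRSA in cation-adjusted Mueller-Hinton broth and enterococci in Brain Heart Infusion broth. Viability was read with resazurin dye.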
# [1] = system: Enterococcus faecalis 3937158; type: cell-based
# How it was run: as §1
# [2] = system: Enterococcus faecium 3934825; type: cell-based
# How it was run: as §1
# S.aureus MRSA N315 = type: cell-based, Staphylococcus aureus; conditions: Staphylococcus aureus, MRSA
# Procedure: (§2) To find out MICA(with B) and MICB(with A) a checkerboard assay was carried out in 96-well microtiter plates (each test was performed in triplicates). […] Each well in a 96-well plate was inoculated with 100 µL of bacterial inoculum of 1 × 10^5 CFU/mL. For this purpose only bacterial strains of MRSA (N315, 12673 and 6347) were used. Next, the plates were incubated at 37 °C for 24 h.
# (§3) FIC index (FICI) is the sum of FICA and FICB. The interpretation of the calculated FICIs is in accordance to the following principle: FICI ≤ 0.5 synergy; FICI > 0.5 and ≤4 indifference (no interaction); FICI > 4, antagonism.
# [3] = system: S.aureus MRSA hetero-VISA 6347; type: cell-based, Staphylococcus aureus; conditions: Staphylococcus aureus
# Procedure: as §2, §3
# S.aureus MRSA 12673 = type: cell-based, Staphylococcus aureus; conditions: Staphylococcus aureus, MRSA
# Procedure: as §2, §3
# [4] = microbroth dilution, 96-well, resazurin, 37 °C, 24 h, mean ± SD, at least three independent experiments in triplicates, listed as Van-HCl
# [5] = same test as μM value, mean ± SD
# [6] = 24 h, read-out: MIC Van(with TP10), MICA (with B)
smiles,measurement,setting,value
"CN[C@H](CC(C)C)C(=O)N[C@H]1C(=O)N[C@@H](CC(N)=O)C(=O)N[C@H]2C(=O)N[C@H]3C(=O)N[C@H](C(=O)N[C@H](C(=O)O)c4cc(O)cc(O)c4-c4cc3ccc4O)[C@H](O)c3ccc(c(Cl)c3)Oc3cc2cc(c3O[C@@H]2O[C@H](CO)[C@@H](O)[C@H](O)[C@H]2O[C@H]2C[C@](C)(N)[C@H](O)[C@H](C)O2)Oc2ccc(cc2Cl)[C@H]1O [Van, vancomycin, reference compound]",MIC,"S. aureus MRSA 12673; Staphylococcus aureus, MRSA, 24 h, microbroth dilution, 96-well, resazurin, 37 °C, 24 h, mean ± SD, at least three independent experiments in triplicates, read-out: MIC",4.1 µM
same,MIC,"S. aureus MRSA 12673; Staphylococcus aureus, MRSA, raw MIC, first block, test a, repetition 1, read-out: MIC1a",4.07 µM
same,MIC,"S. aureus MRSA 12673; Staphylococcus aureus, MRSA, raw MIC, first block, test a, repetition 2, read-out: MIC2a",2.03 µM
same,MIC,"S. aureus MRSA 12673; Staphylococcus aureus, MRSA, raw MIC, first block, test a, repetition 3, read-out: MIC3a",4.07 µM
same,MIC,"S. aureus MRSA 12673; Staphylococcus aureus, MRSA, raw MIC, first block, test b, repetition 1, read-out: MIC1b",4.07 µM
same,MIC,"S. aureus MRSA 12673; Staphylococcus aureus, MRSA, raw MIC, first block, test b, repetition 2, read-out: MIC2b",2.03 µM
same,MIC,"S. aureus MRSA 12673; Staphylococcus aureus, MRSA, raw MIC, first block, test b, repetition 3, read-out: MIC3b",4.07 µM
same,MIC,"S. aureus MRSA 12673; Staphylococcus aureus, MRSA, raw MIC, test a, repetition 1, read-out: MIC1a",6.05 µM
same,MIC,"S. aureus MRSA 12673; Staphylococcus aureus, MRSA, raw MIC, test a, repetition 2, read-out: MIC2a",3.03 µM
same,MIC,"S. aureus MRSA 12673; Staphylococcus aureus, MRSA, raw MIC, test a, repetition 3, read-out: MIC3a",6.05 µM
same,MIC,"S. aureus MRSA 12673; Staphylococcus aureus, MRSA, raw MIC, test b, repetition 1, read-out: MIC1b",6.05 µM
same,MIC,"S. aureus MRSA 12673; Staphylococcus aureus, MRSA, raw MIC, test b, repetition 2, read-out: MIC2b",3.03 µM
same,MIC,"S. aureus MRSA 12673; Staphylococcus aureus, MRSA, raw MIC, test b, repetition 3, read-out: MIC3b",6.05 µM
same,MIC,S. aureus MRSA 12673; [4],4.1 ± 1.1 µM
same,MIC in (μg/ml),S. aureus MRSA 12673; [5],6.1 ± 1.6 µg/mL
same,MIC,"[1]; Enterococcus faecalis, 3937158, 24 h, microbroth dilution, 96-well, resazurin, 37 °C, 24 h, mean ± SD, at least three independent experiments in triplicates, read-out: MIC",25 µM
same,MIC,"[1]; Enterococcus faecalis, 3937158, raw MIC, first block, test a, repetition 1, read-out: MIC1a",25 µM
same,MIC,"[1]; Enterococcus faecalis, 3937158, raw MIC, first block, test a, repetition 2, read-out: MIC2a",25 µM
same,MIC,"[1]; Enterococcus faecalis, 3937158, raw MIC, first block, test a, repetition 3, read-out: MIC3a",12.5 µM
same,MIC,"[1]; Enterococcus faecalis, 3937158, raw MIC, first block, test b, repetition 1, read-out: MIC1b",25 µM
same,MIC,"[1]; Enterococcus faecalis, 3937158, raw MIC, first block, test b, repetition 2, read-out: MIC2b",25 µM
same,MIC,"[1]; Enterococcus faecalis, 3937158, raw MIC, first block, test b, repetition 3, read-out: MIC3b",12.5 µM
same,MIC,"[1]; Enterococcus faecalis, 3937158, raw MIC, test a, repetition 1, read-out: MIC1a",37.1 µM
same,MIC,"[1]; Enterococcus faecalis, 3937158, raw MIC, test a, repetition 2, read-out: MIC2a",37.1 µM
same,MIC,"[1]; Enterococcus faecalis, 3937158, raw MIC, test a, repetition 3, read-out: MIC3a",18.6 µM
same,MIC,"[1]; Enterococcus faecalis, 3937158, raw MIC, test b, repetition 1, read-out: MIC1b",37.1 µM
same,MIC,"[1]; Enterococcus faecalis, 3937158, raw MIC, test b, repetition 2, read-out: MIC2b",37.1 µM
same,MIC,"[1]; Enterococcus faecalis, 3937158, raw MIC, test b, repetition 3, read-out: MIC3b",18.6 µM
same,MIC,[1]; [4],25.0 ± 6.5 µM
same,MIC in (μg/ml),[1]; [5],37.1 ± 9.6 µg/mL
same,MIC,"[2]; Enterococcus faecium, 3934825, 24 h, microbroth dilution, 96-well, resazurin, 37 °C, 24 h, mean ± SD, at least three independent experiments in triplicates, read-out: MIC",25 µM
same,MIC,"[2]; Enterococcus faecium, 3934825, raw MIC, first block, test a, repetition 1, read-out: MIC1a",25 µM
same,MIC,"[2]; Enterococcus faecium, 3934825, raw MIC, first block, test a, repetition 2, read-out: MIC2a",25 µM
same,MIC,"[2]; Enterococcus faecium, 3934825, raw MIC, first block, test a, repetition 3, read-out: MIC3a",12.5 µM
same,MIC,"[2]; Enterococcus faecium, 3934825, raw MIC, first block, test b, repetition 1, read-out: MIC1b",12.5 µM
same,MIC,"[2]; Enterococcus faecium, 3934825, raw MIC, first block, test b, repetition 2, read-out: MIC2b",25 µM
same,MIC,"[2]; Enterococcus faecium, 3934825, raw MIC, first block, test b, repetition 3, read-out: MIC3b",25 µM
same,MIC,"[2]; Enterococcus faecium, 3934825, raw MIC, test a, repetition 1, read-out: MIC1a",37.1 µM
same,MIC,"[2]; Enterococcus faecium, 3934825, raw MIC, test a, repetition 2, read-out: MIC2a",37.1 µM
same,MIC,"[2]; Enterococcus faecium, 3934825, raw MIC, test a, repetition 3, read-out: MIC3a",37.1 µM
same,MIC,"[2]; Enterococcus faecium, 3934825, raw MIC, test b, repetition 1, read-out: MIC1b",18.6 µM
same,MIC,"[2]; Enterococcus faecium, 3934825, raw MIC, test b, repetition 2, read-out: MIC2b",37.1 µM
same,MIC,"[2]; Enterococcus faecium, 3934825, raw MIC, test b, repetition 3, read-out: MIC3b",37.1 µM
same,MIC,[2]; [4],25.0 ± 6.5 µM
same,MIC in (μg/ml),[2]; [5],37.1 ± 7.6 µg/mL
same,MIC,S.aureus MRSA N315; [6],1.6 µM
same,MIC,"S.aureus MRSA N315; read-out: MIC Van (A), MICA",2 µM
same,MIC,[3]; [6],1.6 µM
same,MIC,"[3]; read-out: MIC Van (A), MICA",4.1 µM
same,MIC,S.aureus MRSA 12673; [6],1.6 µM
same,MIC,"S.aureus MRSA 12673; read-out: MIC Van (A), MICA",4.1 µM
